# According to patent US20230203043A1, “NOVEL IMIDAZOPYRAZINE DERIVATIVES” (Hoffmann-La Roche Inc., priority 2020, published 2023):
# Structures can show the parent of a compound that is named as a salt.
# Tested on: Acinetobacter baumannii ATCC17961
# Experiment: Antimicrobial susceptibility testing: 90% growth inhibitory concentration (IC90) determination in Iso-Sensitest broth, OD600 growth
# Type: cell-based
# Details: Acinetobacter baumannii, ATCC17961, 16 h, read-out: A. baumannii ATCC 17961 IC90 (uM), strain ATCC 17961, OD600 growth over 16 h
# In short: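 OD600 read every 20 min for 16 h at 35±2° C; inhibition taken in log phase to derive IC90. Twofold, 10-point dilutions (e.g. 50–0.097 μM final), inoculum ~5×10^(5) CFU/ml.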
row,SMILES,IC90
1,"C[C@@H](NC(=O)c1ccc(Nc2nccn3c(-c4c[nH]nc4C(F)(F)F)cnc23)cc1Cl)C(=O)NCCN(C)C [Example 98, 2-chloro-N-[(2R)-1-[2-(dimethylamino)ethylamino]-1-oxopropan-2-yl]-4-[[3-[3-(trifluoromethyl)-1H-pyrazol-4-yl]imidazo[1,2-a]pyrazin-8-yl]amino]benzamide formate]",1.94 µM
2,"C[C@@H](NC(=O)c1ccc(Nc2nccn3c(-c4c[nH]nc4C(F)(F)F)cnc23)cc1Cl)C(=O)N1CC(N)C1 [Example 99, N-[(2R)-1-(3-aminoazetidin-1-yl)-1-oxopropan-2-yl]-2-chloro-4-[[3-[3-(trifluoromethyl)-1H-pyrazol-4-yl]imidazo[1,2-a]pyrazin-8-yl]amino]benzamide formate]",2.08 µM
3,"C#CCn1cc(-c2cnc3c(Nc4ccc(C(=O)NCC(=O)NCCN)c(Cl)c4)nccn23)c(C(F)(F)F)n1 [Example 116, N-[2-(2-aminoethylamino)-2-oxoethyl]-2-chloro-4-[[3-[1-prop-2-ynyl-3-(trifluoromethyl)pyrazol-4-yl]imidazo[1,2-a]pyrazin-8-yl]amino]benzamide formate]",0.22 µM
4,"NCCNC(=O)CNC(=O)c1ccc(Nc2nccn3c(-c4cn(CC(F)F)nc4C(F)(F)F)cnc23)cc1Cl [Example 117, N-[2-(2-aminoethylamino)-2-oxoethyl]-2-chloro-4-[[3-[1-(2,2-difluoroethyl)-3-(trifluoromethyl)pyrazol-4-yl]imidazo[1,2-a]pyrazin-8-yl]amino]benzamide formate]",0.338 µM
5,"Cc1cc(Cn2cc(-c3cnc4c(Nc5ccc(C(=O)N6CCNCC6)c(Cl)c5)nccn34)c(C(F)(F)F)n2)n[nH]1 [Example 118, [2-chloro-4-[[3-[1-[(5-methyl-1H-pyrazol-3-yl)methyl]-3-(trifluoromethyl)pyrazol-4-yl]imidazo[1,2-a]pyrazin-8-yl]amino]phenyl]-piperazin-1-ylmethanone formate]",0.343 µM
6,"N#CCn1cc(-c2cnc3c(Nc4ccc(C(=O)NCC(=O)NCCN)c(Cl)c4)nccn23)c(C(F)(F)F)n1 [Example 119, N-[2-(2-aminoethylamino)-2-oxoethyl]-2-chloro-4-[[3-[1-(cyanomethyl)-3-(trifluoromethyl)pyrazol-4-yl]imidazo[1,2-a]pyrazin-8-yl]amino]benzamide formate]",0.476 µM

# Same assay, conditions: Acinetobacter baumannii, ATCC17961, 16 h, strain ATCC 17961, OD600 growth over 16 h, read-out: A. baumannii ATCC 17961 IC90
row,SMILES,IC90
1,"N#CCn1cc(-c2cnc3c(Nc4ccc(C(=O)N5CC(N)C5)c(Cl)c4)nccn23)c(C(F)(F)F)n1 [Example 100, 2-[4-[8-[4-(3-aminoazetidine-1-carbonyl)-3-chloroanilino]imidazo[1,2-a]pyrazin-3-yl]-3-(trifluoromethyl)pyrazol-1-yl]acetonitrile]",0.1 µM
2,"N#CCn1cc(-c2cnc3c(Nc4ccc(C(=O)N5CC6(CNC6)C5)c(Cl)c4)nccn23)c(C(F)(F)F)n1 [Example 102, 2-[4-[8-[3-chloro-4-(2,6-diazaspiro[3.3]heptane-2-carbonyl)anilino]imidazo[1,2-a]pyrazin-3-yl]-3-(trifluoromethyl)pyrazol-1-yl]acetonitrile]",0.18 µM
3,"NC1CCN(C(=O)c2ccc(Nc3nccn4c(-c5cn(CC(F)F)nc5C(F)(F)F)cnc34)cc2Cl)CC1 [Example 103, (4-aminopiperidin-1-yl)-[2-chloro-4-[[3-[1-(2,2-difluoroethyl)-3-(trifluoromethyl)pyrazol-4-yl]imidazo[1,2-a]pyrazin-8-yl]amino]phenyl] methanone]",0.195 µM
4,"O=C(c1ccc(Nc2nccn3c(-c4cn(C(F)F)nc4C(F)(F)F)cnc23)cc1Cl)N1CCN(C(=O)[C@@H]2CCCN2)CC1 [Example 104, [2-chloro-4-[[3-[1-(difluoromethyl)-3-(trifluoromethyl)pyrazol-4-yl]imidazo[1,2-a]pyrazin-8-yl]amino]phenyl]-[4-[(2S)-pyrrolidine-2-carbonyl]piperazin-1-yl]methanone]",0.227 µM
5,"NC12CC(NC(=O)c3ccc(Nc4nccn5c(-c6c[nH]nc6C(F)(F)F)cnc45)cc3Cl)(C1)C2 [Example 105, N-(3-amino-1-bicyclo[1.1.1]pentanyl)-2-chloro-4-[[3-[3-(trifluoromethyl)-1H-pyrazol-4-yl]imidazo[1,2-a]pyrazin-8-yl]amino]benzamide]",1.56 µM
6,"C#CCn1cc(-c2cnc3c(Nc4ccc(C(=O)N[C@H](C)CN)c(CC)c4)nccn23)c(C(F)(F)F)n1 [Example 106, N-[(2R)-1-aminopropan-2-yl]-2-ethyl-4-[[3-[1-prop-2-ynyl-3-(trifluoromethyl)pyrazol-4-yl]imidazo[1,2-a]pyrazin-8-yl]amino]benzamide]",0.222 µM
7,"CCc1cc(Nc2nccn3c(-c4cn(CC(F)F)nc4C(F)(F)F)cnc23)ccc1C(=O)N[C@H](C)CN [Example 107, N-[(2R)-1-aminopropan-2-yl]-4-[[3-[1-(2,2-difluoroethyl)-3-(trifluoromethyl)pyrazol-4-yl]imidazo[1,2-a]pyrazin-8-yl]amino]-2-ethylbenzamide]",0.239 µM
8,"C=CCn1cc(-c2cnc3c(Nc4ccc(C(=O)N[C@H](C)CN)c(CC)c4)nccn23)c(C(F)(F)F)n1 [Example 108, N-[(2R)-1-aminopropan-2-yl]-2-ethyl-4-[[3-[1-prop-2-enyl-3-(trifluoromethyl)pyrazol-4-yl]imidazo[1,2-a]pyrazin-8-yl]amino]benzamide]",0.302 µM
9,"CCc1cc(Nc2nccn3c(-c4cn(CC#N)nc4C(F)(F)F)cnc23)ccc1C(=O)N[C@H](C)CN [Example 109, N-[(2R)-1-aminopropan-2-yl]-4-[[3-[1-(cyanomethyl)-3-(trifluoromethyl)pyrazol-4-yl]imidazo[1,2-a]pyrazin-8-yl]amino]-2-ethylbenzamide]",0.333 µM
10,"CCc1cc(Nc2nccn3c(-c4cn(CCF)nc4C(F)(F)F)cnc23)ccc1C(=O)N[C@H](C)CN [Example 110, N-[(2R)-1-aminopropan-2-yl]-2-ethyl-4-[[3-[1-(2-fluoroethyl)-3-(trifluoromethyl)pyrazol-4-yl]imidazo[1,2-a]pyrazin-8-yl]amino]benzamide]",0.506 µM
11,"O=C(c1ccc(Nc2nccn3c(-c4c[nH]nc4C(F)(F)F)cnc23)cc1Cl)N1CC2(CNC2)C1 [Example 111, [2-chloro-4-[[3-[3-(trifluoromethyl)-1H-pyrazol-4-yl]imidazo[1,2-a]pyrazin-8-yl]amino]phenyl]-(2,6-diazaspiro[3.3]heptan-2-yl)methanone]",0.997 µM
12,"C#CCn1cc(-c2cnc3c(Nc4ccc(C(=O)NCC)c(CC)c4)nccn23)c(C(F)(F)F)n1 [Example 112, N,2-diethyl-4-[[3-[1-prop-2-ynyl-3-(trifluoromethyl)pyrazol-4-yl]imidazo[1,2-a]pyrazin-8-yl]amino]benzamide]",0.231 µM
13,"CCNC(=O)c1ccc(Nc2nccn3c(-c4cn(CC#N)nc4C(F)(F)F)cnc23)cc1CC [Example 113, 4-[[3-[1-(cyanomethyl)-3-(trifluoromethyl)pyrazol-4-yl]imidazo[1,2-a]pyrazin-8-yl]amino]-N,2-diethylbenzamide]",0.234 µM
14,"CCNC(=O)c1ccc(Nc2nccn3c(-c4cn(CCF)nc4C(F)(F)F)cnc23)cc1CC [Example 114, N,2-diethyl-4-[[3-[1-(2-fluoroethyl)-3-(trifluoromethyl)pyrazol-4-yl]imidazo[1,2-a]pyrazin-8-yl]amino]benzamide]",0.329 µM
15,"O=C(c1ccc(Nc2nccn3c(-c4cn(CC(F)F)nc4C(F)(F)F)cnc23)cc1Cl)N1CCN(C(=O)[C@@H]2CCCN2)CC1 [Example 115, [2-chloro-4-[[3-[1-(2,2-difluoroethyl)-3-(trifluoromethyl)pyrazol-4-yl]imidazo[1,2-a]pyrazin-8-yl]amino]phenyl]-[4-[(2S)-pyrrolidine-2-carbonyl]piperazin-1-yl]methanone]",0.251 µM
16,"O=C(c1ccc(Nc2nccn3c(-c4cn(CC(F)F)nc4C(F)(F)F)cnc23)cc1Cl)N1CCNCC1 [Example 120, [2-chloro-4-[[3-[1-(2,2-difluoroethyl)-3-(trifluoromethyl)pyrazol-4-yl]imidazo[1,2-a]pyrazin-8-yl]amino]phenyl]-piperazin-1-ylmethanone]",0.109 µM
17,"C=CCn1cc(-c2cnc3c(Nc4ccc(C(=O)NCCOCCN)c(CC)c4)nccn23)c(C(F)F)n1 [Example 121, N-[2-(2-aminoethoxy)ethyl]-4-[[3-[3-(difluoromethyl)-1-prop-2-enylpyrazol-4-yl]imidazo[1,2-a]pyrazin-8-yl]amino]-2-ethylbenzamide]",0.201 µM
18,"CCc1cc(Nc2nccn3c(-c4cn(CC(F)F)nc4C(F)F)cnc23)ccc1C(=O)NCCOCCN [Example 122, N-[2-(2-aminoethoxy)ethyl]-4-[[3-[1-(2,2-difluoroethyl)-3-(difluoromethyl)pyrazol-4-yl]imidazo[1,2-a]pyrazin-8-yl]amino]-2-ethylbenzamide]",0.208 µM
19,"C#CCn1cc(-c2cnc3c(Nc4ccc(C(=O)NCCOCCN)c(CC)c4)nccn23)c(C(F)F)n1 [Example 123, N-[2-(2-aminoethoxy)ethyl]-4-[[3-[3-(difluoromethyl)-1-prop-2-ynylpyrazol-4-yl]imidazo[1,2-a]pyrazin-8-yl]amino]-2-ethylbenzamide]",0.209 µM
20,"CNC(=O)c1ccc(Nc2nccn3c(-c4cn(CC(F)F)nc4C(F)(F)F)cnc23)cc1Cl [Example 124, 2-chloro-4-[[3-[1-(2,2-difluoroethyl)-3-(trifluoromethyl)pyrazol-4-yl]imidazo[1,2-a]pyrazin-8-yl]amino]-N-methylbenzamide]",0.121 µM
21,"O=C(CNC(=O)c1ccc(Nc2nccn3c(-c4c[nH]nc4C(F)(F)F)cnc23)cc1Cl)N[C@H]1CCNC1 [Example 125, 2-chloro-N-[2-oxo-2-[[(3S)-pyrrolidin-3-yl]amino]ethyl]-4-[[3-[3-(trifluoromethyl)-1H-pyrazol-4-yl]imidazo[1,2-a]pyrazin-8-yl]amino]benzamide]",2.23 µM
